From patent publication US20070004660A1, “Synergistic Modulation of Flt3 Kinase Using Alkylquinolines and Alkylquinazolines” (priority 2005, published 2007)

Tests used:
MV4-11 cells = assay: Inhibition of MV4-11 cell proliferation (CellTiterGlo, 72 h); assay type: cell-based; settings: Homo sapiens; 72 h growth inhibition; uncertainty ±20%
[1] = target: T1, isolated kinase domain of the human FLT3 receptor (a.a. 571-993) (Homo sapiens, UniProt P36888); assay: FLT3 fluorescence polarization kinase assay; assay type: biochemical; settings: 150 uM ATP; uncertainty ±10%
T1 construct: human FLT3 receptor (a.a. 571-993)
T1 sequence (P36888 571-993): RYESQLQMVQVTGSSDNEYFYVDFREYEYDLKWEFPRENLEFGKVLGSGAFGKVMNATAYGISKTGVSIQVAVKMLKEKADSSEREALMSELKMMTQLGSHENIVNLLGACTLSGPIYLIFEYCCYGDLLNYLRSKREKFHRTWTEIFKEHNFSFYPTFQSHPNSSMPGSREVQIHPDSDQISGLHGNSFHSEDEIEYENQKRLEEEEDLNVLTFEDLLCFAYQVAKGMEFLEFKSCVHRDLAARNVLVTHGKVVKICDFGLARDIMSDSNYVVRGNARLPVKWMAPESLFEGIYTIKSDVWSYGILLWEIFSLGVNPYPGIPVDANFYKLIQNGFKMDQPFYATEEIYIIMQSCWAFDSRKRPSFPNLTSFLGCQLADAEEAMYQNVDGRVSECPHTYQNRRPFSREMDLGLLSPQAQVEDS

Structure (SMILES)	IC50 (MV4-11 cells) [nM]	IC50 [1] [nM]
O=C1CCCN1CCOc1ccc2c(C3CCN(C(=O)Nc4ccc(N5CCOCC5)cc4)CC3)ncnc2c1 [Example 85, 4-{7-[2-(2-Oxo-pyrrolidin-1-yl)-ethoxy]-quinazolin-4-yl}-piperidine-1-carboxylic acid (4-morpholin-4-yl-phenyl)-amide]	58	27
CN1CCN(CCCOc2ccc3c(C4CCN(C(=O)Nc5ccc(N6CCOCC6)nc5)CC4)ncnc3c2)CC1 [Example 80, 4-{7-[3-(4-Methyl-piperazin-1-yl)-propoxy]-quinazolin-4-yl}-piperidine-1-carboxylic acid (6-morpholin-4-yl-pyridin-3-yl)-amide]	52	4
CN1CCC(COc2ccc3c(C4CCN(C(=O)Nc5ccc(OC6CCC6)nc5)CC4)ncnc3c2)CC1 [Example 107, 4-[7-(1-Methyl-piperidin-4-ylmethoxy)-quinazolin-4-yl]-piperidine-1-carboxylic acid (6-cyclobutoxy-pyridin-3-yl)-amide]	23	1
CC(C)Oc1ccc(NC(=O)N2CCC(c3ncnc4cc(N5CCN(C)CC5)ccc34)CC2)cc1 [Example 103, 4-[7-(4-Methyl-piperazin-1-yl)-quinazolin-4-yl]-piperidine-1-carboxylic acid (4-isopropoxy-phenyl)-amide]	25	1
O=C(Nc1ccc(N2CCOCC2)cc1)N1CCC(c2ncnc3cc(OCCCN4CCCC4)ccc23)CC1 [Example 124, 4-[7-(3-Pyrrolidin-1-yl-propoxy)-quinazolin-4-yl]-piperidine-1-carboxylic acid (4-morpholin-4-yl-phenyl)-amide]	47	21
O=C(Nc1ccc(N2CCOCC2)cc1)N1CCC(c2ncnc3cc(OCCCN4CCC[C@H]4CO)ccc23)CC1 [Example 119, (S)-4-{7-[3-(2-Hydroxymethyl-pyrrolidin-1-yl)-propoxy]-quinazolin-4-yl}-piperidine-1-carboxylic acid (4-morpholin-4-yl-phenyl)-amide]	53	47
COCCCOc1ccc2c(C3CCN(C(=O)Nc4ccc(N5CCOCC5)cc4)CC3)ncnc2c1 [Example 78, 4-[7-(3-Methoxy-propoxy)-quinazolin-4-yl]-piperidine-1-carboxylic acid (4-morpholin-4-yl-phenyl)-amide]	81	225
COc1cc2ncnc(C3CCN(C(=O)Nc4ccc(C5=CCN(C(=O)OC(C)(C)C)CC5)cc4)CC3)c2cc1OC [Example 61, 4-(4-{[4-(6,7-Dimethoxy-quinazolin-4-yl)-piperidine-1-carbonyl]-amino}-phenyl)-3,6-dihydro-2H-pyridine-1-carboxylic acid tert-butyl ester]	6000	8500
CCOc1ccc(NC(=O)N2CCC(c3ncnc4cc(OC)c(OC)cc34)CC2)cc1 [Example 44, 4-(6,7-Dimethoxy-quinazolin-4-yl)-piperidine-1-carboxylic acid (4-ethoxy-phenyl)-amide]	725	150
CC(C)Oc1ccc(NC(=O)N2CCC(c3ncnc4ccc(C#CCN5CCCCC5)cc34)CC2)cc1 [Example 14, 4-[6-(3-Piperidin-1-yl-prop-1-ynyl)-quinazolin-4-yl]-piperidine-1-carboxylic acid (4-isopropoxy-phenyl)-amide]	23	53
O=C(Nc1ccc(N2CCOCC2)cc1)N1CCC(c2ncnc3cc(OCCN4CCOCC4)ccc23)CC1 [Example 96, 4-[7-(2-Morpholin-4-yl-ethoxy)-quinazolin-4-yl]-piperidine-1-carboxylic acid (4-morpholin-4-yl-phenyl)-amide]	235	36
O=C(Nc1ccc(N2CCCC2)nc1)N1CCC(c2ncnc3cc(OCCN4CCOCC4)ccc23)CC1 [Example 95, 4-[7-(2-Morpholin-4-yl-ethoxy)-quinazolin-4-yl]-piperidine-1-carboxylic acid (6-pyrrolidin-1-yl-pyridin-3-yl)-amide]	56	8
O=C(Nc1ccc(N2CCOCC2)nc1)N1CCC(c2ncnc3cc(OCCN4CCOC4=O)ccc23)CC1 [Example 91, 4-{7-[2-(2-Oxo-oxazolidin-3-yl)-ethoxy]-quinazolin-4-yl}-piperidine-1-carboxylic acid (6-morpholin-4-yl-pyridin-3-yl)-amide]	98	3
COc1cc2ncnc(C3CCN(C(=O)Nc4ccc(C(C)O)cc4)CC3)c2cc1OC (stereo not shown) [Example 55, 4-(6,7-Dimethoxy-quinazolin-4-yl)-piperidine-1-carboxylic acid [4-(1-hydroxy-ethyl)-phenyl]-amide]	2600	1100
O=C1CCCN1CCCOc1ccc2c(C3CCN(C(=O)Nc4ccc(N5CCOCC5)nc4)CC3)ncnc2c1 [Example 72, 4-{7-[3-(2-Oxo-pyrrolidin-1-yl)-propoxy]-quinazolin-4-yl}-piperidine-1-carboxylic acid (6-morpholin-4-yl-pyridin-3-yl)-amide]	54	27

More lines, now with the values ahead:

IC50 (MV4-11 cells) [nM]	IC50 [1] [nM]	Structure (SMILES)
179	251	CC(C)Oc1ccc(NC(=O)N2CCC(c3ncnc4ccc(OCCCN5CCN(C)CC5)cc34)CC2)cc1 [Example 76, 4-{6-[3-(4-Methyl-piperazin-1-yl)-propoxy]-quinazolin-4-yl}-piperidine-1-carboxylic acid (4-isopropoxy-phenyl)-amide]
37	2	CS(=O)(=O)NCCCOc1ccc2c(C3CCN(C(=O)Nc4ccc(OC5CCCC5)nc4)CC3)ncnc2c1 [Example 88, 4-[7-(3-Methanesulfonylamino-propoxy)-quinazolin-4-yl]-piperidine-1-carboxylic acid (6-cyclopentyloxy-pyridin-3-yl)-amide]
533	200	CC(C)Oc1ccc(NC(=O)N2CCC(c3ncnc4ccccc34)CC2)cc1 [Example 8, 4-Quinazolin-4-yl-piperidine-1-carboxylic acid (4-isopropoxy-phenyl)-amide]
27	19	CC(C)Oc1ccc(NC(=O)N2CCC(c3ncnc4cc(OCCCNS(C)(=O)=O)ccc34)CC2)cc1 [Example 65, 4-[7-(3-Methanesulfonylamino-propoxy)-quinazolin-4-yl]-piperidine-1-carboxylic acid (4-isopropoxy-phenyl)-amide]
149	32	CC(C)Oc1ccc(NC(=O)N2CCC(c3ncnc4ccc(C#CCO)cc34)CC2)cc1 [Example 12, 4-[6-(3-Hydroxy-prop-1-ynyl)-quinazolin-4-yl]-piperidine-1-carboxylic acid (4-isopropoxy-phenyl)-amide]
460	46	CC(C)Oc1ccc(NC(=O)N2CCC(c3ncnc4ccc(I)cc34)CC2)cc1 [Example 11, 4-(6-Iodo-quinazolin-4-yl)-piperidine-1-carboxylic acid (4-isopropoxy-phenyl)-amide]
18	5	CC(C)Oc1ccc(NC(=O)N2CCC(c3ncnc4cc(NCCCN5CCN(C)CC5)ccc34)CC2)cc1 [Example 102, 4-{7-[3-(4-Methyl-piperazin-1-yl)-propylamino]-quinazolin-4-yl}-piperidine-1-carboxylic acid (4-isopropoxy-phenyl)-amide]
44	58	CC(C)Oc1ccc(NC(=O)N2CCC(c3ncnc4cc(OCCN5CCOC5=O)ccc34)CC2)cc1 [Example 79, 4-{7-[2-(2-Oxo-oxazolidin-3-yl)-ethoxy]-quinazolin-4-yl}-piperidine-1-carboxylic acid (4-isopropoxy-phenyl)-amide]
